Laboratory results reported in patent US20240385195A1, “PEPTIDE FOR DETECTING CA125 AND USE THEREOF” (Ajou University Industry-Academic Cooperation Foundation, priority 2022, published 2024).
No end group written: not given here.

Assays:
HE4 protein = target: T1, HE4 protein (Homo sapiens, UniProt Q14508); assay: ELISA assay of binding affinity and specificity; details: HRP-conjugated M13 antibody, TMB, FIG. 1
T1 construct: purchased Sinobiological, PA, USA
T1 sequence (Q14508 31-124): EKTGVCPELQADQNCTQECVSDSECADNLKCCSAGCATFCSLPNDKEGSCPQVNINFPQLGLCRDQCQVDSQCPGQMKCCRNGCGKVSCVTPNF
Description: (§1) In order to evaluate the binding affinity and specificity of the discovered SEQ ID NO: 1 peptide to the CA125 protein, and the binding affinity and specificity of the SEQ ID NO: 2 peptide to HE4, ELISA assay was performed according to the manufacturer's instructions using CA125 protein (R&D Systems Inc, MN, USA), HE4 protein (Sinobiological, PA, USA), HRP-conjugated M13 antibody (Sinobiological, PA, USA), and TMB solution (Thermo Scientific, MA, USA). In addition, to measure the binding affinity Kd (dissociation constant), the discovered peptides of SEQ ID NO: 1 and SEQ ID NO: 2 were synthesized (Biostem, Suwon, Korea), CA125 protein and HE4 protein were each fluorescently labeled using Protein Labeling kit RED-NHS 2nd Generation (NanoTemper Technologies, Munich, Germany). Afterwards, the binding affinity between peptide and protein was measured using Monolith NT.115 (NanoTemper Technologies, Munich, Germany) according to the manufacturer's instructions.

CA125 protein = assay: ELISA assay of binding affinity and specificity; set-up: species or system human; details: HRP-conjugated M13 antibody, TMB, FIG. 1
Description: as §1

Substance	specific binding to HE4 protein (HE4 protein)	specific binding to CA125 protein (CA125 protein)
LGSKPIN [SEQ ID NO: 2, LGSKPIN]	specifically bound to the HE4 protein	–
HTHGAARVPDHR [SEQ ID NO: 1]	–	specifically bound to the CA125 protein
